ChEMBL document CHEMBL1201861, “Genomics of Drug Sensitity in Cancer screening data, Wellcome Trust Sanger Institute”
pIC50: −log10 of the molar value. Structures can show the parent of a compound that is named as a salt.

How the values were obtained:
Experiment in all cases: cells
Assay type in all cases: functional, cell-based, Homo sapiens
Calu-6 = details: Homo sapiens, Calu-6;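 also: growth of human Calu-6 cells, read out by a cell viability assay, IC50 marking inhibition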
Description: SANGER: Inhibition of human Calu-6 cell growth in a cell viability assay.

D-263MG = details: Homo sapiens, D-263MG
Description: SANGER: Inhibition of human D-263MG cell growth in a cell viability assay.

ES3 = details: Homo sapiens, ES3;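 also: growth inhibition of ES3 cells, read out with a cell viability assay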
Description: SANGER: Inhibition of human ES3 cell growth in a cell viability assay.

ES5 = details: Homo sapiens, ES5;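 also: growth inhibition of human ES5 cells, read out by a cell viability assay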
Description: SANGER: Inhibition of human ES5 cell growth in a cell viability assay.

ES8 = details: Homo sapiens, ES8;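 also: growth inhibition of human ES8 cells, read out with a cell viability assay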
Description: SANGER: Inhibition of human ES8 cell growth in a cell viability assay.

EW-1 = details: Homo sapiens, EW-1;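 also: growth inhibition of the human EW-1 cell line, read out by a cell viability assay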
Description: SANGER: Inhibition of human EW-1 cell growth in a cell viability assay.

HCE-T = details: Homo sapiens, HCE-T;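 also: cell viability assay read-out, reporting inhibition of HCE-T cell growth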
Description: SANGER: Inhibition of human HCE-T cell growth in a cell viability assay.

HD-MY-Z = details: Homo sapiens, HD-MY-Z;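 also: growth inhibition of HD-MY-Z cells, read out with a cell viability assay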
Description: SANGER: Inhibition of human HD-MY-Z cell growth in a cell viability assay.

HH = details: Homo sapiens, HH
Description: SANGER: Inhibition of human HH cell growth in a cell viability assay.

JVM-2 = details: Homo sapiens, JVM-2;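 also: growth inhibition of JVM-2 cells determined by a cell viability assay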
Description: SANGER: Inhibition of human JVM-2 cell growth in a cell viability assay.

KARPAS-299 = details: Homo sapiens, KARPAS-299
Description: SANGER: Inhibition of human KARPAS-299 cell growth in a cell viability assay.

KMOE-2 = details: Homo sapiens, KMOE-2;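 also: growth inhibition of human KMOE-2 cells, read out with a cell viability assay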
Description: SANGER: Inhibition of human KMOE-2 cell growth in a cell viability assay.

KNS-81-FD = details: Homo sapiens, KNS-81-FD;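 also: growth inhibition of KNS-81-FD cells, read out with a cell viability assay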
Description: SANGER: Inhibition of human KNS-81-FD cell growth in a cell viability assay.

KP-N-YS = details: Homo sapiens, KP-N-YS;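 also: cell viability assay measuring inhibition of cell line growth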
Description: SANGER: Inhibition of human KP-N-YS cell growth in a cell viability assay.

KURAMOCHI = details: Homo sapiens, KURAMOCHI;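 also: growth inhibition of KURAMOCHI cells, read out with a cell viability assay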
Description: SANGER: Inhibition of human KURAMOCHI cell growth in a cell viability assay.

LAMA-84 = details: Homo sapiens, LAMA-84;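 also: growth inhibition of LAMA-84 cells, read out with a cell viability assay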
Description: SANGER: Inhibition of human LAMA-84 cell growth in a cell viability assay.

LB2518-MEL = details: Homo sapiens, LB2518-MEL;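 also: growth inhibition of human LB2518-MEL cells, measured with a cell viability assay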
Description: SANGER: Inhibition of human LB2518-MEL cell growth in a cell viability assay.

LS-1034 = details: Homo sapiens, LS-1034
Description: SANGER: Inhibition of human LS-1034 cell growth in a cell viability assay.

LS-123 = details: Homo sapiens, LS-123
Description: SANGER: Inhibition of human LS-123 cell growth in a cell viability assay.

LU-139 = details: Homo sapiens, LU-139
Description: SANGER: Inhibition of human LU-139 cell growth in a cell viability assay.

LXF-289 cell line = details: Homo sapiens, LXF-289
Description: SANGER: Inhibition of human LXF-289 cell growth in a cell viability assay.

MHH-NB-11 = details: Homo sapiens, MHH-NB-11;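 also: growth inhibition of human MHH-NB-11 cells, read out by a cell viability assay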
Description: SANGER: Inhibition of human MHH-NB-11 cell growth in a cell viability assay.

ML-2 = details: Homo sapiens, ML-2;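 also: growth inhibition of ML-2 cells, measured with a cell viability readout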
Description: SANGER: Inhibition of human ML-2 cell growth in a cell viability assay.

MLMA = details: Homo sapiens, MLMA;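 also: growth inhibition of MLMA cells (human), determined through a cell viability readout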
Description: SANGER: Inhibition of human MLMA cell growth in a cell viability assay.

MZ7-mel = details: Homo sapiens, MZ7-mel;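 also: growth inhibition of human MZ7-mel cells, measured by a cell viability assay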
Description: SANGER: Inhibition of human MZ7-mel cell growth in a cell viability assay.

NB10 = details: Homo sapiens, NB10;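 also: growth inhibition of NB10 cells, read out by a cell viability assay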
Description: SANGER: Inhibition of human NB10 cell growth in a cell viability assay.

NCI-H1581 = details: Homo sapiens, NCI-H1581;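 also: cell growth inhibition read out by a viability assay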
Description: SANGER: Inhibition of human NCI-H1581 cell growth in a cell viability assay.

NCI-H1648 = details: Homo sapiens, NCI-H1648;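 also: cell viability assay measuring inhibition of NCI-H1648 cell growth, from the Sanger screening data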
Description: SANGER: Inhibition of human NCI-H1648 cell growth in a cell viability assay.

NCI-H1650 = details: Homo sapiens, NCI-H1650;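 also: growth inhibition of human NCI-H1650 cells measured by a cell viability assay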
Description: SANGER: Inhibition of human NCI-H1650 cell growth in a cell viability assay.

NCI-H23 = details: Homo sapiens, NCI-H23;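 also: cell viability assay measuring growth inhibition of NCI-H23 cells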
Description: SANGER: Inhibition of human NCI-H23 cell growth in a cell viability assay.

NCI-H446 = details: Homo sapiens, NCI-H446;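 also: growth inhibition of NCI-H446 cells determined by a cell viability assay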
Description: SANGER: Inhibition of human NCI-H446 cell growth in a cell viability assay.

NCI-H69 = details: Homo sapiens, NCI-H69;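 also: growth inhibition of the cell line, read out with a cell viability assay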
Description: SANGER: Inhibition of human NCI-H69 cell growth in a cell viability assay.

NCI-H82 = details: Homo sapiens, NCI-H82;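 also: growth inhibition of NCI-H82 cells, measured with a cell viability readout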
Description: SANGER: Inhibition of human NCI-H82 cell growth in a cell viability assay.

NMC-G1 = details: Homo sapiens, NMC-G1;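 also: growth inhibition of the NMC-G1 cell line, measured with a cell viability read-out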
Description: SANGER: Inhibition of human NMC-G1 cell growth in a cell viability assay.

OCI-AML2 = details: Homo sapiens, OCI-AML2;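 also: growth inhibition of OCI-AML2 cells, read out with a cell viability assay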
Description: SANGER: Inhibition of human OCI-AML2 cell growth in a cell viability assay.

OVCAR-4 = details: Homo sapiens, OVCAR-4;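 also: growth inhibition of human OVCAR-4 cells, measured with a cell viability assay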
Description: SANGER: Inhibition of human OVCAR-4 cell growth in a cell viability assay.

SCC-15 = details: Homo sapiens, SCC-15;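 also: growth inhibition of SCC-15 cells, read out with a cell viability assay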
Description: SANGER: Inhibition of human SCC-15 cell growth in a cell viability assay.

SW 954 = details: Homo sapiens, SW 954;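 also: growth inhibition of SW954 human cancer cells, read out as cell viability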
Description: SANGER: Inhibition of human SW954 cell growth in a cell viability assay.

TE-1 = details: Homo sapiens, TE-1;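 also: growth inhibition of the human TE-1 cell line, read out with a cell viability assay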
Description: SANGER: Inhibition of human TE-1 cell growth in a cell viability assay.

697 = details: Homo sapiens
Description: SANGER: Inhibition of human 697 cell growth in a cell viability assay.

A253 cell line = details: Homo sapiens, A253;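 also: growth inhibition of A253 cells, read out with a cell viability assay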
Description: SANGER: Inhibition of human A253 cell growth in a cell viability assay.

A704 = details: Homo sapiens, A704;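 also: growth inhibition of human A704 cells, read out with a cell viability assay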
Description: SANGER: Inhibition of human A704 cell growth in a cell viability assay.

BB30-HNC = details: Homo sapiens, BB30-HNC;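 also: growth inhibition of the cultured cell line, read out by a cell viability assay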
Description: SANGER: Inhibition of human BB30-HNC cell growth in a cell viability assay.

BV-173 = details: Homo sapiens, BV-173
Description: SANGER: Inhibition of human BV-173 cell growth in a cell viability assay.

Becker = details: Homo sapiens, Becker;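 also: growth inhibition of Becker cells, read out with a cell viability assay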
Description: SANGER: Inhibition of human Becker cell growth in a cell viability assay.

VA-ES-BJ = details: Homo sapiens, VA-ES-BJ;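 also: growth inhibition of the VA-ES-BJ cell line, read out by a cell viability assay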
Description: SANGER: Inhibition of human VA-ES-BJ cell growth in a cell viability assay.

no-11 = details: Homo sapiens;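 also: growth inhibition of human NO-11 cells, read out with a cell viability assay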
Description: SANGER: Inhibition of human no-11 cell growth in a cell viability assay.

COLO-684 = details: Homo sapiens, COLO-684
Description: SANGER: Inhibition of human COLO-684 cell growth in a cell viability assay.

CCC/C=C/C=C/C(=O)O[C@H]1/C(=C/C(=O)OC)C[C@H]2C[C@H]([C@@H](C)O)OC(=O)C[C@H](O)C[C@@H]3C[C@H](OC(C)=O)C(C)(C)[C@](O)(C[C@@H]4C/C(=C/C(=O)OC)C[C@H](/C=C/C(C)(C)[C@]1(O)O2)O4)O3 [BRYOSTATIN 1]
pIC50 (Calu-6): < 8.10 | pIC50 (D-263MG): < 8.10 | pIC50 (ES3): < 8.10 | pIC50 (ES5): < 8.10 | pIC50 (ES8): < 8.10 | pIC50 (EW-1): < 8.10 | pIC50 (HCE-T): < 8.10 | pIC50 (HD-MY-Z): < 8.10 | pIC50 (HH): < 8.10 | pIC50 (JVM-2): < 8.10 | pIC50 (KARPAS-299): < 8.10 | pIC50 (KMOE-2): < 8.10 | pIC50 (KNS-81-FD): < 8.10 | pIC50 (KP-N-YS): < 8.10 | pIC50 (KURAMOCHI): < 8.10 | pIC50 (LAMA-84): < 8.10 | pIC50 (LB2518-MEL): < 8.10 | pIC50 (LS-1034): < 8.10 | pIC50 (LS-123): < 8.10 | pIC50 (LU-139): < 8.10 | pIC50 (LXF-289 cell line): < 8.10 | pIC50 (MHH-NB-11): < 8.10 | pIC50 (ML-2): < 8.10 | pIC50 (MLMA): < 8.10 | pIC50 (MZ7-mel): < 8.10 | pIC50 (NB10): < 8.10 | pIC50 (NCI-H1581): < 8.10 | pIC50 (NCI-H1648): < 8.10 | pIC50 (NCI-H1650): < 8.10 | pIC50 (NCI-H23): < 8.10 | pIC50 (NCI-H446): < 8.10 | pIC50 (NCI-H69): < 8.10 | pIC50 (NCI-H82): < 8.10 | pIC50 (NMC-G1): < 8.10 | pIC50 (OCI-AML2): < 8.10 | pIC50 (OVCAR-4): < 8.10 | pIC50 (SCC-15): < 8.10 | pIC50 (SW 954): < 8.10 | pIC50 (TE-1): < 8.10 | pIC50 697: < 8.10 | pIC50 (A253 cell line): < 8.10 | pIC50 (A704): < 8.10 | pIC50 (BB30-HNC): < 8.10 | pIC50 (BV-173): < 8.10 | pIC50 (Becker): < 8.10 | pIC50 (VA-ES-BJ): < 8.10 | pIC50 (no-11): < 8.10 | pIC50 (COLO-684): < 8.10

COc1cccc2c1C(=O)c1c(O)c3c(c(O)c1C2=O)C[C@@](O)(C(=O)CO)C[C@@H]3O[C@H]1C[C@H](N)[C@H](O)[C@H](C)O1 [DOXORUBICIN]
pIC50 (Calu-6): 6.60 | pIC50 (D-263MG): 6.51 | pIC50 (ES3): 7.05 | pIC50 (ES5): 7.41 | pIC50 (ES8): 7.68 | pIC50 (EW-1): 7.21 | pIC50 (HCE-T): 6.78 | pIC50 (HD-MY-Z): 6.56 | pIC50 (HH): 6.62 | pIC50 (JVM-2): 6.62 | pIC50 (KARPAS-299): < 5.99 | pIC50 (KMOE-2): 6.24 | pIC50 (KNS-81-FD): 6.80 | pIC50 (KP-N-YS): 6.66 | pIC50 (KURAMOCHI): 6.90 | pIC50 (LAMA-84): 6.36 | pIC50 (LB2518-MEL): 6.38 | pIC50 (LS-1034): 6.42 | pIC50 (LS-123): 7.73 | pIC50 (LU-139): 6.46 | pIC50 (LXF-289 cell line): 6.96 | pIC50 (MHH-NB-11): 6.66 | pIC50 (ML-2): 6.87 | pIC50 (MLMA): 6.91 | pIC50 (MZ7-mel): 6.95 | pIC50 (NB10): 6.73 | pIC50 (NCI-H1581): 6.01 | pIC50 (NCI-H1648): 6.88 | pIC50 (NCI-H1650): 7.10 | pIC50 (NCI-H23): 6.55 | pIC50 (NCI-H446): < 5.99 | pIC50 (NCI-H69): 6.25 | pIC50 (NCI-H82): < 5.99 | pIC50 (NMC-G1): 6.86 | pIC50 (OCI-AML2): 7.35 | pIC50 (OVCAR-4): 6.80 | pIC50 (SCC-15): 6.73 | pIC50 (SW 954): 7.77 | pIC50 (TE-1): 7.12 | pIC50 697: 7.72 | pIC50 (A253 cell line): 7.34 | pIC50 (A704): < 5.99 | pIC50 (BB30-HNC): 7.53 | pIC50 (BV-173): 6.60 | pIC50 (Becker): 6.28 | pIC50 (VA-ES-BJ): 7.48 | pIC50 (no-11): 6.49 | pIC50 (COLO-684): 6.66

O=C(O)c1ccc(-c2c[nH]c3ncc(-c4ccccc4)cc23)cc1C1CCCC1 [GSK-650394]
pIC50 (Calu-6): < 4.80 | pIC50 (D-263MG): 4.86 | pIC50 (ES3): < 4.80 | pIC50 (ES5): < 4.80 | pIC50 (ES8): 5.15 | pIC50 (EW-1): < 4.80 | pIC50 (HCE-T): < 4.80 | pIC50 (HD-MY-Z): < 4.80 | pIC50 (HH): < 4.80 | pIC50 (JVM-2): < 4.80 | pIC50 (KARPAS-299): < 4.80 | pIC50 (KMOE-2): < 4.80 | pIC50 (KNS-81-FD): < 4.80 | pIC50 (KP-N-YS): 5.36 | pIC50 (KURAMOCHI): < 4.80 | pIC50 (LAMA-84): 4.99 | pIC50 (LB2518-MEL): < 4.80 | pIC50 (LS-1034): < 4.80 | pIC50 (LS-123): < 4.80 | pIC50 (LU-139): < 4.80 | pIC50 (LXF-289 cell line): 5.85 | pIC50 (MHH-NB-11): < 4.80 | pIC50 (ML-2): < 4.80 | pIC50 (MLMA): < 4.80 | pIC50 (MZ7-mel): < 4.80 | pIC50 (NB10): < 4.80 | pIC50 (NCI-H1581): < 4.80 | pIC50 (NCI-H1648): < 4.80 | pIC50 (NCI-H1650): < 4.80 | pIC50 (NCI-H23): < 4.80 | pIC50 (NCI-H446): < 4.80 | pIC50 (NCI-H69): 5.12 | pIC50 (NCI-H82): < 4.80 | pIC50 (NMC-G1): < 4.80 | pIC50 (OCI-AML2): < 4.80 | pIC50 (OVCAR-4): < 4.80 | pIC50 (SCC-15): < 4.80 | pIC50 (SW 954): 5.35 | pIC50 (TE-1): < 4.80 | pIC50 697: < 4.80 | pIC50 (A253 cell line): < 4.80 | pIC50 (A704): < 4.80 | pIC50 (BB30-HNC): 5.63 | pIC50 (BV-173): < 4.80 | pIC50 (Becker): < 4.80 | pIC50 (VA-ES-BJ): 5.04 | pIC50 (no-11): < 4.80 | pIC50 (COLO-684): < 4.80

COC1=CC(c2cc3ccccc3[nH]2)=N/C1=C\c1[nH]c(C)cc1C [OBATOCLAX MESYLATE]
pIC50 (Calu-6): 7.04 | pIC50 (D-263MG): 5.50 | pIC50 (ES3): 6.56 | pIC50 (ES5): 6.22 | pIC50 (ES8): 6.93 | pIC50 (EW-1): > 7.20 | pIC50 (HCE-T): 6.90 | pIC50 (HD-MY-Z): 4.83 | pIC50 (HH): 6.15 | pIC50 (JVM-2): 5.40 | pIC50 (KARPAS-299): < 4.80 | pIC50 (KMOE-2): 7.04 | pIC50 (KNS-81-FD): 6.44 | pIC50 (KP-N-YS): 6.10 | pIC50 (KURAMOCHI): 7.07 | pIC50 (LAMA-84): 5.59 | pIC50 (LB2518-MEL): 6.63 | pIC50 (LS-1034): 6.18 | pIC50 (LS-123): 7.06 | pIC50 (LU-139): 5.22 | pIC50 (LXF-289 cell line): 6.59 | pIC50 (MHH-NB-11): 5.46 | pIC50 (ML-2): 6.64 | pIC50 (MLMA): 7.12 | pIC50 (MZ7-mel): > 7.20 | pIC50 (NB10): 5.55 | pIC50 (NCI-H1581): 5.63 | pIC50 (NCI-H1648): 6.95 | pIC50 (NCI-H1650): 5.42 | pIC50 (NCI-H23): 4.97 | pIC50 (NCI-H446): 6.02 | pIC50 (NCI-H69): 5.33 | pIC50 (NCI-H82): 5.48 | pIC50 (NMC-G1): 6.50 | pIC50 (OCI-AML2): 7.24 | pIC50 (OVCAR-4): 6.69 | pIC50 (SCC-15): 7.31 | pIC50 (SW 954): 6.39 | pIC50 (TE-1): 6.84 | pIC50 697: 7.27 | pIC50 (A253 cell line): 6.24 | pIC50 (A704): 7.04 | pIC50 (BB30-HNC): > 7.20 | pIC50 (BV-173): 5.74 | pIC50 (Becker): 5.78 | pIC50 (VA-ES-BJ): 6.15 | pIC50 (no-11): 5.82 | pIC50 (COLO-684): 6.18
